The values that follow come from PubChem BioAssay AID328 (DTP/NCI, 2004).

The test has as its system BDF1 mice, P388 leukemia ip, median survival T/C. The experiment in a line: NCI In Vivo Anticancer Drug Screen. Data for tumor model P388 Leukemia (intraperitoneal) in B6D2F1 (BDF1) mice. The note with it: endpoint: median survival time, higher = longer survival. The gist of the method: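 Steps: implant the tumour, treat one group with compound and another with vehicle, record survival, then divide treated by control.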

[1] abbreviates: dose: 50.0 mg/kg/injection, schedule: Q01DX009 (ip), vehicle: saline with Tween-80.
Where [2] appears, read: dose: 100.0 mg/kg/injection, schedule: Q01DX009 (ip), vehicle: saline with Tween-80.
Setting [3] is: dose: 100.0 mg/kg/injection, schedule: Q04DX003 (ip), vehicle: saline with Tween-80.
Where [4] appears, read: dose: 200.0 mg/kg/injection, schedule: Q01DX009 (ip), vehicle: saline with Tween-80.
Where [5] appears, read: dose: 200.0 mg/kg/injection, schedule: Q04DX003 (ip), vehicle: saline with Tween-80.
Where [6] appears, read: dose: 400.0 mg/kg/injection, schedule: Q01DX009 (ip), vehicle: saline with Tween-80.
Setting [7] is: dose: 400.0 mg/kg/injection, schedule: Q04DX003 (ip), vehicle: saline with Tween-80.
Setting [8] is: dose: 25.0 mg/kg/injection, schedule: Q04DX003 (ip), vehicle: saline with Tween-80.
Where [9] appears, read: dose: 25.0 mg/kg/injection, schedule: Q01DX009 (ip), vehicle: saline with Tween-80.

The structures appear in SMILES notation. Several values for one entry are separate records, joined by “and”; a condition that tells them apart may be missing. Identical values can stand only once. Inconclusive results and toxic doses are left out.

In the case of `CC(C)C(=O)c1ccc([N+](=O)[O-])o1`, the T/C by setting is: under setting [1], 115 % of control; under setting [2], 111 % of control; under setting [3], 107 % of control; under setting [4], 109 % of control; under setting [5], 116 % of control; under setting [6], 107 % of control. The T/C under setting [7] was 109 % of control.

Consider `CCC(=O)N(C)[C@@H](C)C(=O)O[C@H]1CC(=O)N(C)c2cc(cc(OC)c2Cl)C/C(C)=C/C=C[C@@H](OC)[C@@]2(O)C[C@H](OC(=O)N2)[C@@H](C)[C@@H]2O[C@@]12C`, for which the T/C runs as follows: (dose: 0.2 micrograms/kg/injection, schedule: Q01DX009 (ip), vehicle: saline) 120 % of control; (dose: 1.6 micrograms/kg/injection, schedule: Q01DX009 (ip), vehicle: saline) 154 % of control; (dose: 3.1 micrograms/kg/injection, schedule: Q01DX009 (ip), vehicle: saline) 150 % of control; (dose: 12.5 micrograms/kg/injection, schedule: Q01DX009 (ip), vehicle: saline) 104 % of control.

In the case of `CC(=O)c1ccc(NC(=O)N(CCCl)N=O)cc1`, the T/C was 118 % of control (dose: 0.29 mg/kg/injection, schedule: Q04DX003 (ip), vehicle: Klucel (hydroxypropylcellulose) (HPC)); 113 % of control (dose: 0.43 mg/kg/injection, schedule: Q04DX003 (ip), vehicle: Klucel (hydroxypropylcellulose) (HPC)); 150 % of control (dose: 0.99 mg/kg/injection, schedule: Q04DX003 (ip), vehicle: saline); 218 % of control (dose: 18.75 mg/kg/injection, schedule: Q04DX003 (ip), vehicle: Klucel (hydroxypropylcellulose) (HPC)); 204 % of control (dose: 24.75 mg/kg/injection, schedule: Q04DX003 (ip), vehicle: Klucel (hydroxypropylcellulose) (HPC)); 236 % of control and 90 % of control (dose: 37.5 mg/kg/injection, schedule: Q04DX003 (ip), vehicle: Klucel (hydroxypropylcellulose) (HPC)). Further, the T/C by setting is: (dose: 56.25 mg/kg/injection, schedule: Q04DX003 (ip), vehicle: Klucel (hydroxypropylcellulose) (HPC)) 109 % of control; (dose: 75.0 mg/kg/injection, schedule: Q04DX003 (ip), vehicle: Klucel (hydroxypropylcellulose) (HPC)) 122 % of control.

In the case of `CCN(CC)C(=S)SSC(=S)N(CC)CC`, the T/C is, setting by setting: (dose: 75.0 mg/kg/injection, schedule: Q01DX001 (ip), vehicle: Klucel (hydroxypropylcellulose) (HPC)) 104 % of control; (dose: 150.0 mg/kg/injection, schedule: Q01DX001 (ip), vehicle: Klucel (hydroxypropylcellulose) (HPC)) 104 % of control; (dose: 300.0 mg/kg/injection, schedule: Q01DX001 (ip), vehicle: Klucel (hydroxypropylcellulose) (HPC)) 95 % of control.

For the compound `COc1cc(C=O)cc(I)c1O`, the T/C is 105 % of control (dose: 12.5 mg/kg/injection, schedule: Q01DX009 (ip), vehicle: saline sonified); 86 % of control (dose: 12.5 mg/kg/injection, schedule: Q04DX003 (ip), vehicle: saline with Tween-80); 94 % of control (dose: 25.0 mg/kg/injection, schedule: Q01DX009 (ip), vehicle: saline sonified); 90 % of control under setting [8]; 100 % of control (dose: 50.0 mg/kg/injection, schedule: Q01DX009 (ip), vehicle: saline sonified); 100 % of control (dose: 50.0 mg/kg/injection, schedule: Q04DX003 (ip), vehicle: saline with Tween-80).

For `O=C1NC2NC(=O)NC2N1` (stereo unspecified), the T/C under setting [3] is 100 % of control, the T/C under setting [5] was 100 % of control and the T/C under setting [7] is 104 % of control.

Take `O=C(O)c1ccc(O)c(=O)cc1`: the T/C (dose: 12.5 mg/kg/injection, schedule: Q01DX001 (ip), vehicle: saline with Tween-80) is 102 % of control.

On to `Cc1nc2ccccc2c(Cl)c1C`, for which the T/C by setting is: (dose: 25.0 mg/kg/injection, schedule: Q01DX009 (ip), vehicle: Klucel (hydroxypropylcellulose) (HPC)) 102 % of control; (dose: 50.0 mg/kg/injection, schedule: Q01DX009 (ip), vehicle: Klucel (hydroxypropylcellulose) (HPC)) 105 % of control; (dose: 100.0 mg/kg/injection, schedule: Q01DX009 (ip), vehicle: Klucel (hydroxypropylcellulose) (HPC)) 103 % of control.

Regarding `Cn1c(=O)oc2ccc(Cl)cc21`, the T/C under setting [9] was 122 % of control, the T/C under setting [1] was 115 % of control and the T/C under setting [4] is 91 % of control.

Turning to `COc1ccc(C2=CC(=O)C(c3ccc(OC)cc3)=CC2=O)cc1`, the T/C by setting is: (dose: 5.0 mg/kg/injection, schedule: Q01DX009 (ip), vehicle: gum acacia) 87 % of control; (dose: 20.0 mg/kg/injection, schedule: Q01DX009 (ip), vehicle: gum acacia) 91 % of control; (dose: 20.0 mg/kg/injection, schedule: Q04DX003 (ip), vehicle: gum acacia) 100 % of control; (dose: 40.0 mg/kg/injection, schedule: Q01DX009 (ip), vehicle: gum acacia) 95 % of control; (dose: 40.0 mg/kg/injection, schedule: Q04DX003 (ip), vehicle: gum acacia) 90 % of control; (dose: 80.0 mg/kg/injection, schedule: Q01DX009 (ip), vehicle: gum acacia) 91 % of control. In addition, for the setting “dose: 80.0 mg/kg/injection, schedule: Q04DX003 (ip), vehicle: gum acacia”, the T/C was 95 % of control.

In the case of `CC(=O)Nc1cc2c(cc1[N+](=O)[O-])-c1ccccc1C2O` (stereo unspecified), the T/C by setting is: under setting [2], 100 % of control; under setting [3], 100 % of control; under setting [4], 90 % of control; under setting [5], 104 % of control; under setting [7], 104 % of control.

With `NC(=S)N/N=C\c1nccc2c(C(F)(F)F)cccc12`, the T/C under setting [8] is 106 % of control.

For `COc1cc(OC)c(OC)cc1/C=C/c1ccc2ccccc2n1`, the T/C under setting [3] is 100 % of control, the T/C under setting [5] is 88 % of control and the T/C under setting [7] is 88 % of control.

Consider `CCCCNC(=O)Nc1ccc(N(CC)CC)cc1`, for which the T/C under setting [3] was 100 % of control, the T/C under setting [5] was 100 % of control and the T/C under setting [7] was 90 % of control.

For `Clc1ccc(-c2cc(=[N+]3CCOCC3)ss2)cc1`, the T/C is, setting by setting: (dose: 12.5 mg/kg/injection, schedule: Q01DX009 (ip), vehicle: water) 118 % of control; (dose: 25.0 mg/kg/injection, schedule: Q01DX009 (ip), vehicle: water) 102 % of control; (dose: 25.0 mg/kg/injection, schedule: Q04DX003 (ip), vehicle: water) 94 % of control; (dose: 50.0 mg/kg/injection, schedule: Q01DX009 (ip), vehicle: water) 111 % of control; (dose: 50.0 mg/kg/injection, schedule: Q04DX003 (ip), vehicle: water) 100 % of control; (dose: 100.0 mg/kg/injection, schedule: Q01DX009 (ip), vehicle: water) 111 % of control. Besides, the T/C (dose: 100.0 mg/kg/injection, schedule: Q04DX003 (ip), vehicle: water) is 90 % of control and the T/C (dose: 200.0 mg/kg/injection, schedule: Q04DX003 (ip), vehicle: water) was 110 % of control.

With `O=[N+]([O-])c1cc2no[n+]([O-])c2cc1N1CCOCC1`, the T/C (dose: 30.0 mg/kg/injection, schedule: Q01DX009 (ip), vehicle: saline with Tween-80) was 108 % of control.

With `NC(=O)SCC(=O)Nc1ccc2ncccc2c1`, the T/C is 122 % of control (dose: 88.0 mg/kg/injection, schedule: Q01DX009 (ip), vehicle: saline); 104 % of control (dose: 100.0 mg/kg/injection, schedule: Q04DX003 (ip), vehicle: saline sonified); 118 % of control (dose: 132.0 mg/kg/injection, schedule: Q01DX009 (ip), vehicle: saline); 100 % of control (dose: 200.0 mg/kg/injection, schedule: Q04DX003 (ip), vehicle: saline sonified); 100 % of control (dose: 400.0 mg/kg/injection, schedule: Q04DX003 (ip), vehicle: saline sonified).

Turning to `Cc1ccc(C)c(-n2c(-c3ccc(Br)cc3)csc2=NC(=O)c2ccccc2F)c1`, the T/C reads like this: under setting [2], 110 % of control; under setting [4], 100 % of control; under setting [6], 115 % of control.

`CCOC(=O)c1ccccn1`: the T/C (dose: 12.5 mg/kg/injection, schedule: Q01DX009 (ip), vehicle: saline) was 108 % of control; the T/C under setting [9] is 112 % of control; the T/C (dose: 25.0 mg/kg/injection, schedule: Q01DX009 (ip), vehicle: saline) is 105 % of control; the T/C under setting [1] was 121 % of control; the T/C (dose: 50.0 mg/kg/injection, schedule: Q01DX009 (ip), vehicle: saline) is 94 % of control; the T/C under setting [2] is 105 % of control. Further, the T/C runs as follows: (dose: 100.0 mg/kg/injection, schedule: Q01DX009 (ip), vehicle: saline) 103 % of control; under setting [4], 110 % of control.

Consider `COc1cc2c(c(OC)c1OC)CCc1cnoc1-2`, for which the T/C reads like this: under setting [1], 107 % of control; under setting [2], 95 % of control; under setting [4], 97 % of control; under setting [6], 92 % of control.
